# Publication PMC6010082, “Synthesis and in vitro antiproliferative and antibacterial activity of new thiazolidine-2,4-dione derivatives” (Journal of Enzyme Inhibition and Medicinal Chemistry, 2017)
# Experiments:
# [1] = test system: Staphylococcus aureus ATCC 25923; assay: Broth microdilution MIC, S. aureus ATCC 25923; type: cell-based; conditions: 35 °C; for MIC: Staphylococcus aureus, ATCC25923, 18 h, read-out: Minimal inhibitory concentration MIC, Staphylococcus aureus 25923
# Procedure: (§1) Newly synthesised compounds’ antibacterial activities were tested in vitro against six aerobic bacteria reference strains: three Gram-positive (Staphylococcus aureus ATCC 25923, methicillin-resistant S. aureus MIKROBANK 14.001 reference strain from National Medicines Institute in Warsaw, and Staphylococcus epidermidis ATCC 12228) and three Gram-negative (Escherichia coli ATCC 25922, Proteus mirabilis ATCC 12453, and Pseudomonas aeruginosa ATCC 9027).
# (§2) Bacterial cell suspensions equivalent to 0.5 McFarland (1.5 × 10^8 CFU/ml) were prepared in 0.85% sterile saline. Tested compounds’ stock solutions (50 mg/ml) were dissolved in dimethyl sulphoxide (DMSO).
# (§3) Bacteria strain susceptibility to tested agents was determined by broth microdilution method. Broth microdilution method was carried out in accordance with Clinical and Laboratory Standards Institute recommendations and was used as reference method. Mueller–Hinton broth containing two-fold dilutions of the tested substances (at concentrations ranging from 3.91 to 1000 µg/ml) was used to determine their minimal inhibitory concentration (MIC) which is the lowest concentration of an antibacterial that will inhibit the visible growth of a microorganism after 18 h of incubation). Mueller–Hinton broth is recommended as the medium of choice for susceptibility testing of commonly isolated, rapidly growing aerobic, or facultative organisms. Gentamicin (KRKA, Slovenia), an aminoglycoside antibiotic active against a wide range of human bacterial infections, mostly Gram-negative bacteria including Pseudomonas, Proteus, Serratia, and the Gram-positive Staphylococcus, was used as a control antibacterial agent (at concentration from 0.12 µg to 1000 µg).
# (§4) Tested compounds two-fold dilutions in Mueller–Hinton broth without bacteria were blank control wells (incubated on equal conditions). Polystyrene trays containing 96 wells were filled with serial two-fold Mueller–Hinton broth dilutions of tested agents. Next, the broth was inoculated with 20 μl of 0.5 McFarland microbial suspension (previously diluted 1:10 by Mueller–Hinton broth). Total volume per each well was 200 μl. After incubation (at 35 °C for 18 h), bacterial cultures’ optical density was measured by microplate reader (BioTek Synergy H4 Hybrid Reader) at 600 nm. The MIC values were determined by the comparison of broth bacterial culture OD600 containing tested concentrations of examined substances to blank control wells.
# [2] = test system: methicillin-resistant S. aureus MIKROBANK 14.001; assay: Broth microdilution MIC, methicillin-resistant S. aureus; type: cell-based, Staphylococcus aureus; conditions: methicillin-resistant strain, 18 h, 35 °C; for MIC: Staphylococcus aureus, read-out: Minimal inhibitory concentration MIC, Staphylococcus aureus MIKROBANK 14.001
# Procedure: as §1, §2, §3, §4
# [3] = test system: Staphylococcus epidermidis ATCC 12228; assay: Broth microdilution MIC, S. epidermidis ATCC 12228; type: cell-based; conditions: 35 °C; for MIC: Staphylococcus epidermidis, ATCC12228, 18 h, read-out: Minimal inhibitory concentration MIC, Staphylococcus epidermidis 12228
# Procedure: as §1, §2, §3, §4
# [4] = test system: human breast adenocarcinoma (MCF-7); assay: MTT antiproliferative assay, MCF-7 cells; type: cell-based; conditions: for IC50: Homo sapiens, MCF7, MCF-7 cells, MTT, 48 h exposure, read-out: IC50 [µg/ml] ± SEM, MCF-7; for SI [IC50BJ/IC50], MCF-7: safety index = IC50 normal cells (BJ)/IC50 MCF-7
# Procedure: (§5) The experiment was carried out using normal human skin fibroblasts (BJ) and tumour cell lines: human lung carcinoma (A549), human hepatocellular carcinoma (HepG2), and human breast adenocarcinoma (MCF-7). All cell lines were obtained from ATCC (American Type Culture Collection, England, UK) and cultured in the appropriate, recommended by ATCC, culture medium, additionally supplemented with 10% foetal bovine serum and antibiotics: 100 U/ml penicillin and 100 µg/ml streptomycin. The cells were maintained at 37 °C in a humidified atmosphere of 5% CO2 and 95% air. Antiproliferative activity of the new compounds was assessed by, commonly used for this purpose, colorimetric MTT assay. Cells with active mitochondrial dehydrogenases reduced intracellularly the tetrazolium dye into purple formazan, which is proportional to the number of viable cells. The cells were seeded in 96-multiwell plates in 100 μl of the appropriate complete culture medium at a concentration of 7 × 10^3 cells/well in the case of BJ cells (normal fibroblasts), 1 × 10^4 cells/well in the case of A549 cells (lung cancer), 1.5 × 10^4 cells/well in the case of HepG2 cells (liver cancer), and 2 × 10^4 cells/well in the case of MCF-7 cells (breast cancer) so as to obtain 60–70% confluent culture after 24 h of incubation at 37 °C – the cells are then in the log (logarithmic) phase, during a period of active proliferation, but still have an unoccupied space to divide. Afterwards, the culture medium was discarded and replaced with 100 µl of different concentrations of new tested compounds and reference antiproliferative agent: irinotecan. The stock solutions of the compounds were prepared in DMSO, and solvent control was being tested concurrently to exclude toxicity attributed to DMSO. Ten serial two-fold dilutions using culture medium were performed to prepare different concentrations of the tested compounds, and the highest tested concentration was 200 µg/ml. Untreated cells (maintained in the complete culture medium) served as a negative control. After exposing cells for 48 h to the tested derivatives, the MTT assay was performed as described earlier. Three independent experiments (n = 3) were performed in a quadruplicate. The obtained data were analysed using GraphPad Prism 5, version 5.03 software (La Jolla, CA). […] Moreover, safety index (SI) was calculated using the following formula: SI=IC50normal cells (BJ)/IC50cancer cells
# [5] = test system: normal human skin fibroblasts (BJ); assay: MTT assay, normal fibroblasts BJ; type: cell-based; conditions: Skin fibroblast, 48 h exposure, read-out: IC50 [µg/ml] ± SEM, BJ
# Procedure: as §5
# [6] = test system: human hepatocellular carcinoma (HepG2); assay: MTT antiproliferative assay, HepG2 cells; type: cell-based; conditions: for IC50: Homo sapiens, HepG2 cells, MTT, 48 h exposure, read-out: IC50 [µg/ml] ± SEM, HepG2; for SI [IC50BJ/IC50], HepG2: safety index = IC50 normal cells (BJ)/IC50 HepG2
# Procedure: as §5
# [7] = test system: human lung carcinoma (A549); assay: MTT antiproliferative assay, A549 cells; type: cell-based; conditions: for IC50: Homo sapiens, A549 cells, MTT, 48 h exposure, read-out: IC50 [µg/ml] ± SEM, A549; for SI [IC50BJ/IC50], A549: safety index = IC50 normal cells (BJ)/IC50 A549
# Procedure: as §5
SMILES,MIC [1] [µg/mL],melting point [°C],MIC [2] [µg/mL],MIC [3] [µg/mL],IC50 [5] [µg/mL],also measured
"O=C(CC1SC(=O)NC1=O)Oc1cccc(C=NNC(=O)c2cccc(Cl)c2)c1 (stereo not drawn) [Compound 12, 3-{[2-(3-Chlorobenzoyl)hydrazinylidene]methyl}phenyl (2,4-dioxo-1,3-thiazolidin-5-yl)acetate]",500,244 to 245,500,500,,
"O=C(CC1SC(=O)NC1=O)Oc1cccc(C=NNC(=O)c2ccc(Cl)cc2Cl)c1 (stereo not drawn) [Compound 13, 3-{[2-(2,4-Dichlorobenzoyl)hydrazinylidene]methyl}phenyl (2,4-dioxo-1,3-thiazolidin-5-yl)acetate]",500,198 to 200,500,500,,
"O=C(CC1SC(=O)NC1=O)Oc1ccc(C=NNC(=O)c2cccc(Cl)c2)cc1 (stereo not drawn) [Compound 14, 4-{[2-(3-Chlorobenzoyl)hydrazinylidene]methyl}phenyl (2,4-dioxo-1,3-thiazolidin-5-yl)acetate]",,215 to 216,,,,
"O=C(CC1SC(=O)NC1=O)Oc1ccc(C=NNC(=O)c2ccc(Cl)cc2Cl)cc1 (stereo not drawn) [Compound 15, 4-{[2-(2,4-Dichlorobenzoyl)hydrazinylidene]methyl}phenyl (2,4-dioxo-1,3-thiazolidin-5-yl)acetate]",500,196 to 198,500,500,,
"COc1cc(C=NNC(=O)c2cccc(Cl)c2)ccc1OC(=O)CC1SC(=O)NC1=O (stereo not drawn) [Compound 16, 4-{[2-(3-Chlorobenzoyl)hydrazinylidene]methyl}-2-methoxyphenyl (2,4-dioxo-1,3-thiazolidin-5-yl)acetate]",,220 to 222,,,163.3 ± 1.34,"IC50 [4]: 117 ± 1.23 µg/mL; SI [IC50BJ/IC50], MCF-7 [4]: 1.39"
"COc1cc(C=NNC(=O)c2ccc(Cl)cc2Cl)ccc1OC(=O)CC1SC(=O)NC1=O (stereo not drawn) [Compound 17, 4-{[2-(2,4-Dichlorobenzoyl)hydrazinylidene]methyl}-2-methoxyphenyl (2,4-dioxo-1,3-thiazolidin-5-yl)acetate]",250,186 to 188,250,500,,
"O=C(C=C1SC(=O)NC1=O)Oc1cccc(C=NNC(=O)c2cccc(Cl)c2)c1 [Compound 19, 3-{[2-(3-Chlorobenzoyl)hydrazinylidene]methyl}phenyl (2,4-dioxo-1,3-thiazolidin-5-ylidene)acetate]",,282 to 283,,,,
"O=C(C=C1SC(=O)NC1=O)Oc1ccc(C=NNC(=O)c2cccc(Cl)c2)cc1 [Compound 20, 4-{[2-(3-Chlorobenzoyl)hydrazinylidene]methyl}phenyl (2,4-dioxo-1,3-thiazolidin-5-ylidene)acetate]",,278 to 279,,,11.3 ± 1.05,"IC50 [6]: 27 ± 1.02 µg/mL; SI [IC50BJ/IC50], HepG2 [6]: 0.42"
"COc1cc(C=NNC(=O)c2cccc(Cl)c2)ccc1OC(=O)C=C1SC(=O)NC1=O [Compound 21, 4-{[2-(3-Chlorobenzoyl)hydrazinylidene]methyl}-2-methoxyphenyl (2,4-dioxo-1,3-thiazolidin-5-ylidene)acetate]",,246 to 248,,,31.4 ± 1.08,"IC50 [6]: 48.4 ± 1.02 µg/mL; SI [IC50BJ/IC50], HepG2 [6]: 0.65; IC50 [4]: 124 ± 1.63 µg/mL; SI [IC50BJ/IC50], MCF-7 [4]: 0.25"
"O=C(CC1SC(=O)NC1=O)Oc1cccc(C=NNC(=S)Nc2ccccc2)c1 (stereo not drawn) [Compound 22, 3-{[2-(Phenylcarbamothioyl)hydrazinylidene]methyl}phenyl (2,4-dioxo-1,3-thiazolidin-5-yl)acetate]",,209 to 211,,,81.6 ± 1.11,"IC50 [6]: 48.3 ± 1.07 µg/mL; SI [IC50BJ/IC50], HepG2 [6]: 1.69; IC50 [7]: 57.3 ± 1.19 µg/mL; SI [IC50BJ/IC50], A549 [7]: 1.43; IC50 [4]: 72 ± 1.1 µg/mL; SI [IC50BJ/IC50], MCF-7 [4]: 1.13"
"O=C(CC1SC(=O)NC1=O)Oc1ccc(C=NNC(=S)Nc2ccccc2)cc1 (stereo not drawn) [Compound 25, 4-{[2-(Phenylcarbamothioyl)hydrazinylidene]methyl}phenyl (2,4-dioxo-1,3-thiazolidin-5-yl)acetate]",250,159 to 162,250,250,,
"COc1cc(C=NNC(=S)Nc2ccccc2)ccc1OC(=O)CC1SC(=O)NC1=O (stereo not drawn) [Compound 26, 2-Methoxy-4-{[2-(phenylcarbamothioyl)hydrazinylidene]methyl}phenyl (2,4-dioxo-1,3-thiazolidin-5-yl)acetate]",,182 to 184,,,,
"O=C(C=C1SC(=O)NC1=O)Oc1ccc(C=NNC(=S)Nc2ccccc2)cc1 [Compound 27, 4-{[2-(Phenylcarbamothioyl)hydrazinylidene]methyl}phenyl (2,4-dioxo-1,3-thiazolidin-5-ylidene)acetate]",125,199 to 202,125,125,,"Minimal inhibitory concentration MIC, Staphylococcus aureus 25923 ([1]; 18 h): 125 µg/mL; Minimal inhibitory concentration MIC, Staphylococcus aureus MIKROBANK 14.001 [2]: 125 µg/mL; Minimal inhibitory concentration MIC, Staphylococcus epidermidis 12228 ([3]; 18 h): 125 µg/mL"
"COc1cc(C=NNC(=S)Nc2ccccc2)ccc1OC(=O)C=C1SC(=O)NC1=O [Compound 28, 2-Methoxy-4-{[2-(phenylcarbamothioyl)hydrazinylidene]methyl}phenyl (2,4-dioxo-1,3-thiazolidin-5-ylidene)acetate]",125,186 to 187,125,125,,
"CCc1c2c(nc3ccc(OC(=O)N4CCC(N5CCCCC5)CC4)cc13)-c1cc3c(c(=O)n1C2)COC(=O)[C@]3(O)CC [Irinotecan, irinotecan, reference compound]",,,,,38.7 ± 1.37,"IC50 [6]: 14.8 ± 1.24 µg/mL; SI [IC50BJ/IC50], HepG2 [6]: 2.62; IC50 [7]: 39.7 ± 1.2 µg/mL; SI [IC50BJ/IC50], A549 [7]: 0.97; IC50 [4]: 21.1 ± 1.23 µg/mL; SI [IC50BJ/IC50], MCF-7 [4]: 1.84"
